Reference: paper PMC7367283, “A PIP2 substitute mediates voltage sensor-pore coupling in KCNQ activation” (Communications Biology, 2020)
Values joined by “and” are separate entries in the source; they are usually repeats but may differ in a detail not shown here. Equal values may be shown once.

What was measured:
[1] = molecular target: KCNQ2/KCNQ3 (Homo sapiens, UniProt O43525+O43526); experiment: Two-electrode voltage clamp of KCNQ2+KCNQ3 in Xenopus oocytes; type: cell-based; settings: Q2/Q3, individual oocytes
From the text: (§1) KCNQ2 and KCNQ3 form a channel complex that carries M currents in neurons. Similar to KCNQ1, these KCNQ subunits require PIP2 for voltage-dependent activation. KCNQ2 alone can express functional channels in Xenopus oocytes, while KCNQ3 alone cannot. However, a single mutation, A315T, allows KCNQ3 to functionally express in Xenopus oocytes. We examined the effects of CP1 on KCNQ2, KCNQ3 with mutation A315T (denoted as KCNQ3*), KCNQ2+KCNQ3, and KCNQ2+KCNQ3* expressed in Xenopus oocytes (Fig. 5a). Similar to the effects on KCNQ1 and IKs channels, CP1 changed the amplitude of currents (Fig. 5b), shifted the G–V relation to more negative voltages (Fig. 5c), and slowed the deactivation kinetics (Fig. 5d) for all of these KCNQ channels. These CP1 effects were relatively small on KCNQ2 as compared with those on other KCNQ channels, and the effects on KCNQ2/KCNQ3* and KCNQ2/KCNQ3 complexes were closer to those on KCNQ2 alone.
(§2) Fig. 5 Subtype selectivity of CP1 on KCNQ channels. a Current traces of KCNQ channels as indicated in the absence and the presence of 10 µM CP1. […]
(§3) The whole-oocyte ionic currents were recorded with a GeneClamp 500B amplifier (Axon Instruments, CA) or iTEV90 amplifier (HEKA, Germany) and then sampled at 1 kHz and low-pass-filtered at 2 kHz. […] The Kir1.1 current was recorded with a high K^+ bath solution containing (in mM) 96 KCl, 4 NaCl, 1 CaCl2, 2 MgCl2, and 10 HEPES, pH 7.3–7.4. The HCN4 current was recorded in ND66 solution containing (in mM) 66 NaCl, 32 KCl, 1.8 CaCl2, 1 MgCl2, and 5 HEPES, pH 7.6. All the other potassium channels were recorded in ND96 solution. The currents of CaV1.2 channel were recorded in 40 mM Ba^2+ bath solution containing (in mM) 40 Ba(OH)2, 50 TEA-OH, 2 KOH, and 5 HEPES, adjusted to pH 7.4 with methanesulfonic acid. […] The HCN4 currents were recorded by a test pulse between −30 and −140 mV in 10-mV step from a holding potential of −30 mV. […]

[2] = molecular target: KCNQ2 (Homo sapiens, UniProt O43526); experiment: Two-electrode voltage clamp of KCNQ2 in Xenopus oocytes; type: cell-based; settings: Q2, individual oocytes
From the text: as §1, §2, §3

For `O=S(=O)([O-])Oc1c(-c2sc3c(ccc4cccc(Cl)c43)c2OS(=O)(=O)[O-])[nH]c2ccc(Br)cc12.[Na+].[Na+]` [CP1, DISODIUM 5-BROMO-2-[9-CHLORO-3-(SULFONATOOXY) NAPHTHO [1,2-B] THIEN-2-YL]-1H-INDOL-3-YL SULFATE], the “outward current (Icp1/Ictrl)” value ([1]; 10 µM CP1, at −10 mV) was 1.7551 and 1.3309 and 1.0976 and 1.4059, the “∆V1/2” value ([1]; 10 µM CP1) was 15.349 mV and 10.5931 mV and 18.0231 mV and 10.5937 mV and the “τ deact at -120 mV” value ([1]; 10 µM CP1 treated) was 0.1194 s and 0.1528 s and 0.295 s and 0.1626 s. The “outward current (Icp1/Ictrl)” value ([2]; 10 µM CP1, at −10 mV) was 0.9785 and 0.9995 and 0.8123 and 1.2015 and 0.921 and 1.0361 and 1.0974 and 0.9815, the “∆V1/2” value ([2]; 10 µM CP1) was 17.7074 mV and 18.0799 mV and 23.5635 mV and 19.0344 mV and 22.5139 mV and 21.9525 mV and 18.3088 mV and 15.6776 mV and the “τ deact at -120 mV” value ([2]; 10 µM CP1 treated) was 0.0991 s and 0.1579 s and 0.2146 s and 0.1525 s and 0.1022 s.
